Laboratory results published in ChEMBL document CHEMBL1151093, “6,7,8,9-tetrahydro-3-hydroxy-1H-1-benzazepine-2,5-diones via a diels-alder reaction:antagonists with a non-planar hydrophobic region for NMDA receptor glycine sites” (Bioorg Med Chem Lett, 1995).

Target: Glutamate receptor ionotropic, NMDA 1 (Rattus norvegicus, UniProt P35439)
Test: Tested for the inhibition of [3H]5,7-dichlorokynurenic acid (DCKA) binding to NMDA receptor

SMILES	IC50
CC1Cc2[nH]c(=O)c(=O)cc(O)c2CC1C (stereo not given)	228 nM
O=c1cc(O)c2c([nH]c1=O)CCCC2	3210 nM

More lines, now with the values ahead:

IC50	SMILES
13 nM	O=c1cc(O)c2ccc(Cl)cc2[nH]c1=O
131 nM	O=c1cc(O)c2c([nH]c1=O)CC(Cl)C(Cl)C2 (stereo not given)
827 nM	O=c1cc(O)c2ccccc2[nH]c1=O
